Laboratory results from publication PMC3723878 (PLoS ONE, 2013).
Positions count from the first letter of the chain named.

Tests used:
Test in all cases: Saturation binding of ^125I-HEAT
[1] = target: T1, human α1A-AR F86A variant (Homo sapiens, UniProt P35348, F86A); details: F86A (2.64), n = 3–6
T1 construct: expressed in transfected cells; host or cells: COS-7, transient (calcium phosphate)
T1 sequence (P35348 1-466 F86A): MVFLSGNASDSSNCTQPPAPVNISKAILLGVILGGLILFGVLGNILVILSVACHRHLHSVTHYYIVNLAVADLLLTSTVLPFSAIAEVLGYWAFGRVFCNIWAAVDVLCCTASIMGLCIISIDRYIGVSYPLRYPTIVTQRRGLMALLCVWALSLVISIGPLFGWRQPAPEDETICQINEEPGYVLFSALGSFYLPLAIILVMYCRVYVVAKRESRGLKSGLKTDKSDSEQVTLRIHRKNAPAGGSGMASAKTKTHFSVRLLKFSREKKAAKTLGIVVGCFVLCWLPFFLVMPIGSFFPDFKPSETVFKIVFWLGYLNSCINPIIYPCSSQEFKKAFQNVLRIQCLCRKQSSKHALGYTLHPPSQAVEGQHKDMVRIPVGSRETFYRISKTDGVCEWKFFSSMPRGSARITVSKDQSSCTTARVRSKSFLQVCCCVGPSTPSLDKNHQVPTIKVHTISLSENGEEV

[2] = target: T2, human α1A-AR F187A variant (Homo sapiens, UniProt P35348, F187A)
T2 construct: expressed in transfected cells; host or cells: COS-7, transient (calcium phosphate)
T2 sequence (P35348 1-466 F187A): T1 sequence (P35348 1-466 F86A) with A86F, F187A

[3] = target: T3, human α1A-AR F281A variant (Homo sapiens, UniProt P35348, F281A)
T3 construct: expressed in transfected cells; host or cells: COS-7, transient (calcium phosphate)
T3 sequence (P35348 1-466 F281A): T1 sequence (P35348 1-466 F86A) with A86F, F281A

O=C1c2ccccc2CCC1CNCCc1ccc(O)c([125I])c1 (centres unmarked) [125I-HEAT]
^125I-HEAT pKd [1]: 8.68±0.09 | ^125I-HEAT Ratio (loss of affinity relative to WT) ([2]; F187A): 0.22 ^* | ^125I-HEAT pKd ([2]; F187A (5.41), saturation binding, n = 3–6): 10.70±0.01 | ^125I-HEAT Ratio (loss of affinity relative to WT) ([3]; F281A): 3.9 | ^125I-HEAT pKd ([3]; F281A (6.44), saturation binding, n = 3–6): 9.46±0.09
